Test results taken from US10227344B2, “CK2 inhibitors, compositions and methods thereof” (Polaris Pharmaceuticals, Inc., priority 2016, dated 2019).

Key:
Type in all cases: cell-based
OVCAR-3 = assay: Cancer cell panel, cell viability (resazurin): Ovarian, OVCAR-3; conditions: OVCAR-3 (Ovarian), 72 hours; labelled drug combined with Example 3
Method: (§1) Cells were plated in 96-well plates and treated for 72 hours with a serially diluted CK2 inhibitor or anti-cancer drug or their combination. The suspension cell lines were treated right after plating, while the adherent cells were allowed to attach overnight prior to the start of the treatment.
(§2) Cell viability was determined by adding resazurin to cell cultures and measuring fluorescence with a plate reader. Relative cell viability was calculated by dividing the cell viability signal from a test sample by that of a non-treated control. […] Bliss Independence and Highest Single Agent models were used to determine if there is synergy, additivity or antagonism between the CK2 inhibitor and an anti-cancer drug.

A2780 = assay: Cancer cell panel, cell viability (resazurin): Ovarian, A2780; conditions: 72 hours, labelled drug combined with Example 3
Caov-3 = assay: Cancer cell panel, cell viability (resazurin): Ovarian, Caov-3; conditions: Caov-3 (Ovarian), 72 hours; labelled drug combined with Example 3
Method: as §1, §2

Mia-Paca-2 = assay: Cancer cell panel, cell viability (resazurin): Pancreatic, Mia-Paca-2; conditions: Mia-Paca-2 (Pancreatic), 72 hours; labelled drug combined with Example 3
Method: as §1, §2

Panc-1 = assay: Cancer cell panel, cell viability (resazurin): Pancreatic, Panc-1; conditions: Panc-1 (Pancreatic), 72 hours; labelled drug combined with Example 3
BxPC3 = assay: Cancer cell panel, cell viability (resazurin): Pancreatic, BxPC3; conditions: 72 hours, labelled drug combined with Example 3
HCT116 = assay: Cancer cell panel, cell viability (resazurin): Colon, HCT116; conditions: 72 hours, labelled drug combined with Example 3
HT29 = assay: Cancer cell panel, cell viability (resazurin): Colon, HT29; conditions: 72 hours, labelled drug combined with Example 3
Method: as §1, §2

Colo205 = assay: Cancer cell panel, cell viability (resazurin): Colon, Colo205; conditions: 72 hours, labelled drug combined with Example 3
Method: as §1, §2

LoVo = assay: Cancer cell panel, cell viability (resazurin): Colon, LoVo; conditions: 72 hours, labelled drug combined with Example 3
DLD-1 = assay: Cancer cell panel, cell viability (resazurin): Colon, DLD-1; conditions: DLD-1 (Colon), 72 hours; labelled drug combined with Example 3
H1299 = assay: Cancer cell panel, cell viability (resazurin): NSCLC, H1299; conditions: 72 hours, labelled drug combined with Example 3
A549 = assay: Cancer cell panel, cell viability (resazurin): NSCLC, A549; conditions: 72 hours, labelled drug combined with Example 3
H460 = assay: Cancer cell panel, cell viability (resazurin): NSCLC, H460; conditions: 72 hours, labelled drug combined with Example 3
H1975 = assay: Cancer cell panel, cell viability (resazurin): NSCLC, H1975; conditions: 72 hours, labelled drug combined with Example 3
H23 = assay: Cancer cell panel, cell viability (resazurin): NSCLC, H23; conditions: 72 hours, labelled drug combined with Example 3
MDA-MB-231 = assay: Cancer cell panel, cell viability (resazurin): Breast, MDA-MB-231; conditions: MDA-MB-231 (Breast), 72 hours; labelled drug combined with Example 3
MDA-MB-157 = assay: Cancer cell panel, cell viability (resazurin): Breast, MDA-MB-157; conditions: MDA-MB-157 (Breast), 72 hours; labelled drug combined with Example 3
BT-20 = assay: Cancer cell panel, cell viability (resazurin): Breast, BT-20; conditions: BT-20 (Breast), 72 hours; labelled drug combined with Example 3
Method: as §1, §2

ZR-75-1 = assay: Cancer cell panel, cell viability (resazurin): Breast, ZR-75-1; conditions: ZR-75-1 (Breast), 72 hours; labelled drug combined with Example 3
786-O = assay: Cancer cell panel, cell viability (resazurin): Renal, 786-O; conditions: 786-O (Renal), 72 hours; labelled drug combined with Example 3
Caki-1 = assay: Cancer cell panel, cell viability (resazurin): Renal, Caki-1; conditions: Caki-1 (Renal), 72 hours; labelled drug combined with Example 3
Caki-2 = assay: Cancer cell panel, cell viability (resazurin): Renal, Caki-2; conditions: Caki-2 (Renal), 72 hours; labelled drug combined with Example 3
Method: as §1, §2

A375 = assay: Cancer cell panel, cell viability (resazurin): Melanoma, A375; conditions: 72 hours, labelled drug combined with Example 3
Method: as §1, §2

SK-MEL-3 = assay: Cancer cell panel, cell viability (resazurin): Melanoma, SK-MEL-3; conditions: SK-MEL-3 (Melanoma), 72 hours; labelled drug combined with Example 3
SK-MEL-24 = assay: Cancer cell panel, cell viability (resazurin): Melanoma, SK-MEL-24; conditions: SK-MEL-24 (Melanoma), 72 hours; labelled drug combined with Example 3
WM-115 = assay: Cancer cell panel, cell viability (resazurin): Melanoma, WM-115; conditions: WM-115 (Melanoma), 72 hours; labelled drug combined with Example 3
MeWO = assay: Cancer cell panel, cell viability (resazurin): Melanoma, MeWO; conditions: 72 hours, labelled drug combined with Example 3
Method: as §1, §2

U266 = assay: Cancer cell panel, cell viability (resazurin): multiple myeloma, U266; conditions: 72 hours, labelled drug combined with Example 3
RPMI8226 = assay: Cancer cell panel, cell viability (resazurin): multiple myeloma, RPMI8226; conditions: 72 hours, labelled drug combined with Example 3
U87MG = assay: Cancer cell panel, cell viability (resazurin): Glioblastoma, U87MG; conditions: 72 hours, labelled drug combined with Example 3
K562 = assay: Cancer cell panel, cell viability (resazurin): Leukemia, K562; conditions: 72 hours, labelled drug combined with Example 3
Method: as §1, §2

HL60 = assay: Cancer cell panel, cell viability (resazurin): Leukemia, HL60; conditions: 72 hours, labelled drug combined with Example 3
EOL-1 = assay: Cancer cell panel, cell viability (resazurin): Leukemia, EOL-1; conditions: EOL-1 (Leukemia), 72 hours; labelled drug combined with Example 3
MOLT4 = assay: Cancer cell panel, cell viability (resazurin): Leukemia, MOLT4; conditions: 72 hours, labelled drug combined with Example 3

CC(=O)Nc1cccc(-n2c(=O)n(C3CC3)c(=O)c3c(Nc4ccc(I)cc4F)n(C)c(=O)c(C)c32)c1 [Trametinib, trametinib]
synergy, additivity or antagonism of the combination of Example 3 with the anti-cancer drug (OVCAR-3): + + (Slight synergy relative to each agent alone (CI = 0.75-0.9 by Bliss Independence Model))
synergy, additivity or antagonism of the combination of Example 3 with the anti-cancer drug (A2780): + + (Slight synergy relative to each agent alone (CI = 0.75-0.9 by Bliss Independence Model))
synergy, additivity or antagonism of the combination of Example 3 with the anti-cancer drug (Caov-3): + + (Slight synergy relative to each agent alone (CI = 0.75-0.9 by Bliss Independence Model))
synergy, additivity or antagonism of the combination of Example 3 with the anti-cancer drug (Mia-Paca-2): + (Additive relative to each agent alone (CI = 0.9-1 by Bliss Independence Model and <0.9 by Highest Single Agent Model))
synergy, additivity or antagonism of the combination of Example 3 with the anti-cancer drug (Panc-1): + (Additive relative to each agent alone (CI = 0.9-1 by Bliss Independence Model and <0.9 by Highest Single Agent Model))
synergy, additivity or antagonism of the combination of Example 3 with the anti-cancer drug (BxPC3): + + + + (Strong synergy relative to each agent alone (CI < 0.4 by Bliss Independence Model))
synergy, additivity or antagonism of the combination of Example 3 with the anti-cancer drug (HCT116): + + + (Synergy relative to each agent alone (CI = 0.4-0.74 by Bliss Independence Model))
synergy, additivity or antagonism of the combination of Example 3 with the anti-cancer drug (HT29): + (Additive relative to each agent alone (CI = 0.9-1 by Bliss Independence Model and <0.9 by Highest Single Agent Model))
synergy, additivity or antagonism of the combination of Example 3 with the anti-cancer drug (Colo205): + + + (Synergy relative to each agent alone (CI = 0.4-0.74 by Bliss Independence Model))
synergy, additivity or antagonism of the combination of Example 3 with the anti-cancer drug (LoVo): + + (Slight synergy relative to each agent alone (CI = 0.75-0.9 by Bliss Independence Model))
synergy, additivity or antagonism of the combination of Example 3 with the anti-cancer drug (DLD-1): + + + (Synergy relative to each agent alone (CI = 0.4-0.74 by Bliss Independence Model))
synergy, additivity or antagonism of the combination of Example 3 with the anti-cancer drug (H1299): + (Additive relative to each agent alone (CI = 0.9-1 by Bliss Independence Model and <0.9 by Highest Single Agent Model))
synergy, additivity or antagonism of the combination of Example 3 with the anti-cancer drug (A549): + + + + (Strong synergy relative to each agent alone (CI < 0.4 by Bliss Independence Model))
synergy, additivity or antagonism of the combination of Example 3 with the anti-cancer drug (H460): + + + (Synergy relative to each agent alone (CI = 0.4-0.74 by Bliss Independence Model))
synergy, additivity or antagonism of the combination of Example 3 with the anti-cancer drug (H1975): + + + (Synergy relative to each agent alone (CI = 0.4-0.74 by Bliss Independence Model))
synergy, additivity or antagonism of the combination of Example 3 with the anti-cancer drug (H23): + + + (Synergy relative to each agent alone (CI = 0.4-0.74 by Bliss Independence Model))
synergy, additivity or antagonism of the combination of Example 3 with the anti-cancer drug (MDA-MB-231): + + (Slight synergy relative to each agent alone (CI = 0.75-0.9 by Bliss Independence Model))
synergy, additivity or antagonism of the combination of Example 3 with the anti-cancer drug (MDA-MB-157): + + (Slight synergy relative to each agent alone (CI = 0.75-0.9 by Bliss Independence Model))
synergy, additivity or antagonism of the combination of Example 3 with the anti-cancer drug (BT-20): + + + (Synergy relative to each agent alone (CI = 0.4-0.74 by Bliss Independence Model))
synergy, additivity or antagonism of the combination of Example 3 with the anti-cancer drug (ZR-75-1): + + (Slight synergy relative to each agent alone (CI = 0.75-0.9 by Bliss Independence Model))
synergy, additivity or antagonism of the combination of Example 3 with the anti-cancer drug (786-O): + + + (Synergy relative to each agent alone (CI = 0.4-0.74 by Bliss Independence Model))
synergy, additivity or antagonism of the combination of Example 3 with the anti-cancer drug (Caki-1): + (Additive relative to each agent alone (CI = 0.9-1 by Bliss Independence Model and <0.9 by Highest Single Agent Model))
synergy, additivity or antagonism of the combination of Example 3 with the anti-cancer drug (Caki-2): − − − (Strongly antagonistic relative to each agent alone (CI > 1.49 by Highest Single Agent Model))
synergy, additivity or antagonism of the combination of Example 3 with the anti-cancer drug (A375): + + (Slight synergy relative to each agent alone (CI = 0.75-0.9 by Bliss Independence Model))
synergy, additivity or antagonism of the combination of Example 3 with the anti-cancer drug (SK-MEL-3): + (Additive relative to each agent alone (CI = 0.9-1 by Bliss Independence Model and <0.9 by Highest Single Agent Model))
synergy, additivity or antagonism of the combination of Example 3 with the anti-cancer drug (SK-MEL-24): + + (Slight synergy relative to each agent alone (CI = 0.75-0.9 by Bliss Independence Model))
synergy, additivity or antagonism of the combination of Example 3 with the anti-cancer drug (WM-115): + + (Slight synergy relative to each agent alone (CI = 0.75-0.9 by Bliss Independence Model))
synergy, additivity or antagonism of the combination of Example 3 with the anti-cancer drug (MeWO): + + (Slight synergy relative to each agent alone (CI = 0.75-0.9 by Bliss Independence Model))
synergy, additivity or antagonism of the combination of Example 3 with the anti-cancer drug (U266): + + (Slight synergy relative to each agent alone (CI = 0.75-0.9 by Bliss Independence Model))
synergy, additivity or antagonism of the combination of Example 3 with the anti-cancer drug (RPMI8226): + + (Slight synergy relative to each agent alone (CI = 0.75-0.9 by Bliss Independence Model))
synergy, additivity or antagonism of the combination of Example 3 with the anti-cancer drug (U87MG): + + (Slight synergy relative to each agent alone (CI = 0.75-0.9 by Bliss Independence Model))
synergy, additivity or antagonism of the combination of Example 3 with the anti-cancer drug (K562): + (Additive relative to each agent alone (CI = 0.9-1 by Bliss Independence Model and <0.9 by Highest Single Agent Model))
synergy, additivity or antagonism of the combination of Example 3 with the anti-cancer drug (HL60): + + (Slight synergy relative to each agent alone (CI = 0.75-0.9 by Bliss Independence Model))
synergy, additivity or antagonism of the combination of Example 3 with the anti-cancer drug (EOL-1): + + (Slight synergy relative to each agent alone (CI = 0.75-0.9 by Bliss Independence Model))
synergy, additivity or antagonism of the combination of Example 3 with the anti-cancer drug (MOLT4): + (Additive relative to each agent alone (CI = 0.9-1 by Bliss Independence Model and <0.9 by Highest Single Agent Model))
